Reference: paper PMC10072326, “Promising anticancer agents based on 8-hydroxyquinoline hydrazone copper(II) complexes” (Frontiers in Chemistry, 2023)

Experiments:
[1] = test system: DNA-EB system; experiment: DNA-ethidium bromide fluorescence competition; assay type: binding
Method: The fluorescence emission experiments were carried out in a Perkin Elmer LS 55 spectrofluorimeter. A pulsed Xenon lamp (50 Hz) provided the excitation light. A thermostated water bath recycler linked to the cell holder provided temperature control within ± 0.1 °C. The measurements were done in a 1000 µL quartz cell with an optical path length of 1.0 cm with the complexes solution added directly to the DNA-EB (ethidium bromide) solution in the cell. A glass syringe connected to a Mitutoyo micrometric screw added accurate volumes each time (one complete turn of the screw is 8.2 µL, 1/50 of a turn is the minimum possible addition).
Moreover, this complex reduces the emission of the EB-DNA system to ca. 40 % of its initial intensity with an interaction constant of (1.18 ± 0.03) × 10^4 M^−1 (Fig. S22, constant calculated with HypSpec2014 (28)).
Considering the results of the melting temperature assay, the DNA-EB fluorescence quenching was also used to test complex 7. […] The accessible fraction fa was determined as 0.26 and the interaction constant as (1.44 ± 0.02) ×10^5 M^−1 (HypSpec2014 (28)). As EB has a second mode of interaction with DNA due to electrostatic interactions on the external part of the biomolecule backbone (30), it is possible that the complexes are only being able to reach for this fraction. […]

[2] = test system: plasmid DNA (H2B-GFP); experiment: Agarose gel electrophoresis of plasmid DNA (DNA migration assay); assay type: biochemical; details: 200 and 400 μM; overnight; room temperature
Method: The nature of the interaction between the complexes and pure plasmid DNA was evaluated by agarose gel electrophoresis as described previously with minor modifications (21). Briefly, free ligands, copper complexes, and cisplatin (200 and 400 μM; in 20 μL total volume) were incubated overnight at room temperature with plasmid DNA (200 ng, H2B-GFP, Addgene #11680). NaN3 (final: 37.5 mM in ddH2O) was used as a ROS scavenger. Samples were run on a 1% agarose gel (100 V, 60 min). The experiments were carried out with two biological replicates, and ImageJ software was used to quantify and analyse the intensity of the bands.
In addition to thermal denaturation, we performed a cell-free DNA binding assays followed by gel electrophoresis to further investigate the nature of the interaction between the complexes and DNA. The assay relies on the fact that the relative amount of the supercoiled form of plasmid DNA will change upon the occurrence of nicks since the relaxed form migrates slower and can be easily detected on the gel. […] The ligands had little to no effect on DNA migration except L^7 (Fig. S24A). However, incubation of plasmid DNA with complexes 1 - 8 confirmed binding to DNA and changed the supercoiling status by increasing the nicked circular form (Fig. S24). […] To understand whether the induction of DNA nicks requires ROS, the samples were pre-incubated with a ROS scavenger, NaN3. […]

[3] = Thermodynamic solubility at pH 7.4; assay type: physicochemical; details: Cu(II) complexes; pH 7.40; 20 mM HEPES; 25.0°C
Method: Thermodynamic solubility (S) was measured for the new ligands, L^7 and L^8, since data for the rest of the series was previously reported (9), and for selected Cu(II) complexes: 1, 5 and 6. Solubility was measured for the saturated solutions in water at pH 7.40 in 20 mM HEPES at 25.0 ± 0.1 °C. The concentration was determined by UV-Vis spectrophotometry using the stock solutions of the compounds with known concentrations dissolved in 100% DMSO, 50% and 25% (v/v) DMSO/buffered aqueous solutions for the calibration.

Compound | interaction constant ([1]; DNA-EB fluorescence quenching, HypSpec2014) | emission of the EB-DNA system, % of its initial intensity ([1]; titration 0 – 51.6 µM, HEPES pH 7.4) | effect on plasmid DNA migration / nicking [2] | thermodynamic solubility S 7.4 [3] [µM]
CC(=O)[O-].O=C(NN=Cc1ccc2cccc([O-])c2n1)c1ccccc1.[Cu+2] [Complex 1, [Cu(HL^1)(AcO)]] | (1.18 ± 0.03) × 10^4 M^−1 | ca. 40% | highest nicking efficiency | 
[Cu+2].[O-]C(=NN=Cc1ccc2cccc([O-])c2n1)c1ccc(F)cc1 [Complex 3, [Cu(L^3)]3] |  |  |  | < 1
